Laboratory results published in patent US20060135773A1, “Trisubstituted nitrogen modulators of tyrosine phosphatases” (priority 2004, published 2006).

Target: T1, PTP-1B (Homo sapiens, UniProt P18031)
T1 construct: PTP-1B (purified, 1 mg/mL) as a 1:250 dilution
T1 sequence (P18031 1-321 limits assumed): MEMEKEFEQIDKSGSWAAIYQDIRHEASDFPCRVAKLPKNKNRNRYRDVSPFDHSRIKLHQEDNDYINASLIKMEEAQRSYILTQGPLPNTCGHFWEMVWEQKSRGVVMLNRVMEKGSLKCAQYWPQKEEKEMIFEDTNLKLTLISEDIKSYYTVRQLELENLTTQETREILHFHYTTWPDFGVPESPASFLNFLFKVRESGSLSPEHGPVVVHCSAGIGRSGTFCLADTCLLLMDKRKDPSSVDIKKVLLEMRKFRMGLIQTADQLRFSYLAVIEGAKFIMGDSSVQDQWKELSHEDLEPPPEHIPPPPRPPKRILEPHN
Test: pNPP tyrosine phosphatase inhibition assay, PTP-1B
Type: biochemical
Conditions: pNPP assay, PTP-1B; read-out: Activity Class (IC50 ranges)
Procedure: The compounds provided herein are evaluated for biological activity as inhibitors of PTP-1B using, for example, a pNPP assay can be used to screen compounds for tyrosine phosphatase inhibitory activity as described in the Examples.
A 5× stock of pNPP (p-nitrophenol phosphate) substrate is prepared as 50 mM pNPP in assay buffer. Various tyrosine phosphatase solutions can be prepared as follows: • PTP-1B (purified, 1 mg/mL) as a 1:250 dilution (to a final concentration of 4:g/mL); • TC-PTP (NEB, 1000 units in 100:L) as a 1:50 dilution (to a final concentration of 2U/10:L (4:g/mL)); • CD45 (Calbiochem, 20:g, 400 units in 100:L) as a 1:50 dilution (to a final concentration of 0.8U/10:L (4:g/mL)); • LAR (NEB, 1000 units in 200:L) as a 1:75 dilution (to a final concentration of 0.7U/10:L (4:g/mL)); and • PTP-β (UBI, #14-350, 10,000 units, 40:g/571:L) as a 1:17.5 dilution (to a final concentration of 10U/10:L (4:g/mL));
The compound to be tested is prepared as 1:16.7 and 1:50 dilutions from stock in a total volume of […] DMSO to give final concentrations of 626 and 200:M. The reaction mixtures are prepared in a 96-well microtiter plate (on ice) as 55:L assay buffer, 5:L of the diluted compound (to a final concentration of 31.3 and 10:M), 20:L of the pNPP substrate solution (to a final concentration of 10 mM) and 20:L PTPase in assay buffer. The reactants are mixed well, the plate placed in a water bath at 30° C. and incubated for 10 minutes. The reaction is then terminated by adding 100:L of 2M K2CO3 per well, and the absorbance is measured at 405 nm by conventional means.
Unless otherwise indicated, this assay was used to determine activity for the selected compounds whose activity is provided in Table 1.

Molecule | IC50 [nM]
N#Cc1ccccc1S(=O)(=O)N(Cc1ccc(Cl)c(Cl)c1)Cc1ccc(C(F)(F)P(=O)(O)O)c(Br)c1 [Compound 97, [(2-Bromo-4-{[(3,4-dichloro-benzyl)-(2-cyanobenzenesulfonyl)-amino]-methyl}-phenyl)-difluoro-methyl]-phosphonic acid] | 250 to 499
COC(=O)c1ccc(CN(Cc2ccc(C(F)(F)P(=O)(O)O)c(Cl)c2)S(=O)(=O)c2ccccc2OC)cc1 [Compound 231, 4-{[[3-Chloro-4-(difluoro-phosphono-methyl)-benzyl]-(2-methoxy-benzenesulfonyl)-amino]-methyl}-benzoic acid methyl ester] | 250 to 499
{[4-(difluorophosphonomethyl)-3-chlorophenyl]methyl}[(2-(2,3-dihydrobenzo[b]furan-5-yl)phenyl)methyl][(2-methoxyphenyl)sulfonyl]amine [Compound 204] | < 99
COc1ccccc1S(=O)(=O)N(Cc1ccc(C(F)(F)P(=O)(O)O)c(Cl)c1)C(C)c1ccccc1 (stereo not shown) [Compound 166, [(2-Chloro-4-{[(2-methoxy-benzenesulfonyl)-(1-phenyl-ethyl)-amino]-methyl}-phenyl)-difluoro-methyl]-phosphonic acid] | 2500 to 25000
O=P(O)(O)C(F)(F)c1ccc(CN(Cc2ccc(C(F)(F)P(=O)(O)O)cc2)S(=O)(=O)c2ccc(Cl)cc2)cc1 [Compound 73, {[4-({(4-Chloro-benzenesulfonyl)-[4-(difluoro-phosphono-methyl)-benzyl]-amino}-methyl)-phenyl]-difluoro-methyl}-phosphonic acid] | 250 to 499
O=C(O)CCc1ccc(S(=O)(=O)N(Cc2ccc(Cl)c(Cl)c2)Cc2ccc(C(F)(F)P(=O)(O)O)c(Br)c2)cc1 [Compound 122, 3-{4-[[3-Bromo-4-(difluoro-phosphono-methyl)-benzyl]-(3,4-dichloro-benzyl)-sulfamoyl]-phenyl}-propionic acid] | 100 to 249
COc1ccccc1S(=O)(=O)N(Cc1ccc(C(F)(F)P(=O)(O)O)c(Cl)c1)CC12CC3CC(CC(C3)C1)C2 [Compound 201, (Adamantanylmethyl){[4-(difluorophosphonomethyl)-3-chlorophenyl]methyl}[(2-methoxyphenyl)sulfonyl]amine] | 250 to 499
COc1ccccc1S(=O)(=O)N(Cc1ccc(C(F)(F)P(=O)(O)O)c(Cl)c1)Cc1ccccc1-c1cccc(C(N)=O)c1 [Compound 186, [(4-{[(3′-Carbamoyl-biphenyl-2-ylmethyl)-(2-methoxy-benzenesulfonyl)-amino]-methyl}-2-chloro-phenyl)-difluoro-methyl]-phosphonic acid] | 100 to 249
O=P(O)(O)C(F)(F)c1ccc(CN(Cc2ccc(C(F)(F)P(=O)(O)O)cc2)S(=O)(=O)c2ccccc2C(F)(F)F)cc1 [Compound 90, [(4-{[[4-(Difluoro-phosphono-methyl)-benzyl]-(2-trifluoromethyl-benzenesulfonyl)-amino]-methyl}-phenyl)-difluoro-methyl]-phosphonic acid] | 250 to 499
COc1ccccc1S(=O)(=O)N(Cc1ccc(OCc2nn[nH]n2)cc1)Cc1ccc(S(C)(=O)=O)cc1 [Compound 128, N-(4-Methanesulfonyl-benzyl)-2-methoxy-N-[4-(2H-tetrazol-5-ylmethoxy)-benzyl]-benzenesulfonamide] | > 25000
2-(3-{4-[({[4-(difluorophosphonomethyl)-3-chlorophenyl]methyl}[(2-methoxyphenyl)sulfonyl]amino)methyl]phenyl}phenyl)acetic acid [Compound 193] | < 99
COC(=O)c1cccc(-c2cccc(CCN(Cc3ccc(C(F)(F)P(=O)(O)O)c(Cl)c3)S(=O)(=O)c3ccccc3OC)c2)c1 [Compound 185, 3′-{2-[[3-Chloro-4-(difluoro-phosphono-methyl)-benzyl]-(2-methoxy-benzenesulfonyl)-amino]-ethyl}-biphenyl-3-carboxylic acid methyl ester] | 250 to 499
COc1ccc(OC)c(S(=O)(=O)N(Cc2ccc(C(O)CO)cc2)Cc2ccc(S(C)(=O)=O)cc2)c1 (stereo not shown) [Compound 119, N-[4-(1,2-Dihydroxy-ethyl)-benzyl]-N-(4-methanesulfonyl-benzyl)-2,5-dimethoxy-benzenesulfonamide] | > 25000
COC(=O)c1cccc(-c2ccc(CCN(Cc3ccc(C(F)(F)P(=O)(O)O)c(Cl)c3)S(=O)(=O)c3ccccc3OC)cc2)c1 [Compound 182, 4′-{2-[[3-Chloro-4-(difluoro-phosphono-methyl)-benzyl]-(2-methoxy-benzenesulfonyl)-amino]-ethyl}-biphenyl-3-carboxylic acid methyl ester] | 250 to 499
COc1ccccc1S(=O)(=O)N(Cc1ccc(S(C)(=O)=O)cc1)Cc1ccc(C(F)(F)P(=O)(O)O)c(Cl)c1 [Compound 137, [(2-Chloro-4-{[(4-methanesulfonyl-benzyl)-(2-methoxy-benzenesulfonyl)-amino]-methyl}-phenyl)-difluoro-methyl]-phosphonic acid] | 250 to 499
O=S(=O)(c1ccccc1Cl)N(Cc1ccc(NS(=O)(=O)C(F)(F)F)cc1)Cc1ccc(Cl)c(Cl)c1 [Compound 87, 2-Chloro-N-(3,4-dichloro-benzyl)-N-(4-trifluoromethanesulfonylamino-benzyl)-benzenesulfonamide] | > 25000
COc1ccccc1S(=O)(=O)N(Cc1ccc(C#N)cc1)Cc1ccc(C=CC(=O)O)c(Br)c1 [Compound 120, 3-{2-Bromo-4-[N-(4-cyanobenzyl)-N-(2-methoxy-benzenesulfonyl)aminomethyl]-phenyl}-acrylic acid] | > 25000
O=[N+]([O-])c1ccc(CN(Cc2ccc(Cl)c(Cl)c2)S(=O)(=O)c2ccccc2Cl)cc1 [Compound 81, 2-Chloro-N-(3,4-dichloro-benzyl)-N-(4-nitro-benzyl)-benzenesulfonamide] | > 25000
COc1ccccc1S(=O)(=O)N(Cc1ccc(-c2ccc(C#N)cc2)cc1)Cc1ccc(C(F)(F)P(=O)(O)O)c(Cl)c1 [Compound 155, [(2-Chloro-4-{[(4′-cyano-biphenyl-4-ylmethyl)-(2-methoxy-benzenesulfonyl)-amino]-methyl}-phenyl)-difluoro-methyl]-phosphonic acid] | 100 to 249
COc1ccccc1S(=O)(=O)N(Cc1cccc(-c2cccc(S(C)(=O)=O)c2)c1)Cc1ccc(C(F)(F)P(=O)(O)O)c(Cl)c1 [Compound 142, [(2-Chloro-4-{[(3′-methanesulfonyl-biphenyl-3-ylmethyl)-(2-methoxy-benzenesulfonyl)-amino]-methyl}-phenyl)-difluoro-methyl]-phosphonic acid] | 250 to 499
COc1ccccc1S(=O)(=O)N(Cc1ccc(Cl)c(Cl)c1)Cc1ccc(NC(=O)C(=O)O)c(C(=O)O)c1 [Compound 56, 5-{[(3,4-Dichloro-benzyl)-(2-methoxy-benzenesulfonyl)-amino]-methyl}-2-(oxalyl-amino)-benzoic acid] | > 25000
COc1ccccc1S(=O)(=O)N(Cc1ccc(-c2cccc(C#N)c2)cc1)Cc1ccc(C(F)(F)P(=O)(O)O)c(Cl)c1 [Compound 46, [(2-Chloro-4-{[(3′-cyano-biphenyl-4-ylmethyl)-(2-methoxy-benzenesulfonyl)-amino]-methyl}-phenyl)-difluoro-methyl]-phosphonic acid] | 100 to 249
COC(=O)c1ccc(CN(Cc2ccc(C(F)(F)P(=O)(O)O)c(Cl)c2)S(=O)(=O)c2ccccc2)cc1 [Compound 234, 4-({Benzenesulfonyl-[3-chloro-4-(difluoro-phosphono-methyl)-benzyl]-amino}-methyl)-benzoic acid methyl ester] | 250 to 499
COc1ccccc1S(=O)(=O)N(Cc1ccc(S(C)(=O)=O)cc1)Cc1ccc(C(F)(F)P(=O)(O)O)c(Br)c1 [Compound 108, [(2-Bromo-4-{[(4-methanesulfonyl-benzyl)-(2-methoxy-benzenesulfonyl)-amino]-methyl}-phenyl)-difluoro-methyl]-phosphonic acid] | 250 to 499
O=P(O)(O)C(F)(F)c1ccc(CN(Cc2ccc(Cl)c(Cl)c2)S(=O)(=O)c2ccccc2OC(F)(F)F)cc1Br [Compound 98, [(2-Bromo-4-{[(3,4-dichloro-benzyl)-(2-trifluoromethoxy-benzenesulfonyl)-amino]-methyl}-phenyl)-difluoro-methyl]-phosphonic acid] | 250 to 499
